Measurements published in patent US11548871B2, “Triazole carbamate pyridyl sulfonamides as LPA receptor antagonists and uses thereof” (Gilead Sciences, Inc., priority 2019, dated 2023).

Each molecule was assayed against human LPAR1 (Homo sapiens, UniProt Q92633) (assay: LPAR1 intracellular calcium mobilization assay (antagonist mode)).
human LPAR1, sequence (Q92633 whole entry): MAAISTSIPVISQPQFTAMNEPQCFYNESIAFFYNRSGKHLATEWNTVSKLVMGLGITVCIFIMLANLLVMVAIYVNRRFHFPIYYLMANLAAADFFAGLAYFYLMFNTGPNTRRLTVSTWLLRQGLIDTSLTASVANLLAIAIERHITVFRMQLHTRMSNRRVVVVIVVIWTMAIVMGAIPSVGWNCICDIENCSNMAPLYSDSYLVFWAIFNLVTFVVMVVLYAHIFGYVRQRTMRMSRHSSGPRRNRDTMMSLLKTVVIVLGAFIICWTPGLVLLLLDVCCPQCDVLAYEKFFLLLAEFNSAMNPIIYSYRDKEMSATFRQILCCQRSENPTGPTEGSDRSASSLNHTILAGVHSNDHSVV

**Q.** With `Cc1nc(-c2nnn(C)c2NC(=O)O[C@H](C)c2ccccc2Cl)ccc1NS(=O)(=O)C1CC1` [Compound 103, (R)-1-(2-chloro-phenyl)ethyl(4-(5-(cyclopropane-sulfonamido)-6-methylpyridin-2-yl)-1-methyl-1H-1,2,3-triazol-5-yl)carbamate] as the molecule, how does the EC50 read?
**A.** 0.0563 µM

**Q.** Which EC50 does the source give for `Cc1nc(-c2nnn(C)c2NC(=O)O[C@H](CC#N)c2ccccc2)ccc1NS(C)(=O)=O` [Compound 50, (R)-2-cyano-1-phenylethyl (1-methyl-4-(6-methyl-5-(methylsulfonamido)pyridin-2-yl)-1H-1,2,3-triazol-5-yl)carbamate] here?
**A.** 0.73 µM

**Q.** With `Cc1nc(-c2nnn(C)c2NC(=O)O[C@H](C)c2ccccc2F)ccc1NS(C)(=O)=O` [Compound 93, (R)-1-(2-fluorophenyl)ethyl(1-methyl-4-(6-methyl-5-(methylsulfonamido)pyridin-2-yl)-1H-1,2,3-triazol-5-yl)carbamate] as the molecule, how does the EC50 read?
**A.** 0.0413 µM

**Q.** How did the EC50 turn out when `Cc1nc(-c2nnn(C)c2NC(=O)O[C@H](C)c2cc(Cl)cnc2Cl)ccc1NS(C)(=O)=O` [Compound 142, (R)-1-(2,5-dichloropyridin-3-yl)ethyl (1-methyl-4-(6-methyl-5-(methylsulfonamido)pyridin-2-yl)-1H-1,2,3-triazol-5-yl)carbamate] was run?
**A.** 0.142 µM

**Q.** For `COc1nc(-c2nnn(C)c2NC(=O)O[C@H](C)c2cccnc2Cl)ccc1NS(C)(=O)=O` [Compound 146, (R)-1-(2-chloropyridin-3-yl)ethyl (4-(6-methoxy-5-(methylsulfonamido)pyridin-2-yl)-1-methyl-1H-1,2,3-triazol-5-yl)carbamate], which EC50 is on record?
**A.** 0.58 µM

**Q.** How did the EC50 turn out when `CNS(=O)(=O)Nc1ccc(-c2nnn(C)c2NC(=O)O[C@H](C)c2cc(F)cnc2Cl)nc1` [Compound 162, (R)-1-(2-chloro-5-fluoropyridin-3-yl)ethyl (1-methyl-4-(5-((N-methylsulfamoyl)amino)pyridin-2-yl)-1H-1,2,3-triazol-5-yl)carbamate] was run?
**A.** 0.0817 µM

**Q.** `Cc1nc(-c2nnn(C)c2NC(=O)OCc2cc(F)ccc2F)ccc1NS(C)(=O)=O` [Compound 36, 2,5-difluorobenzyl (1-methyl-4-(6-methyl-5-(methylsulfonamido)pyridin-2-yl)-1H-1,2,3-triazol-5-yl)carbamate] was tested. Which EC50 did it give?
**A.** 0.22 µM

**Q.** `CCCC[C@@H](C)OC(=O)Nc1c(-c2ccc(NS(C)(=O)=O)c(C)n2)nnn1C` [Compound 28, (R)-hexan-2-yl (1-methyl-4-(6-methyl-5-(methylsulfonamido)pyridin-2-yl)-1H-1,2,3-triazol-5-yl)carbamate] was tested. Which EC50 did it give?
**A.** 0.171 µM

**Q.** With `CNS(=O)(=O)Nc1ccc(-c2nnn(C)c2NC(=O)O[C@H](C)c2cccnc2Cl)nc1C` [Compound 163, (R)-1-(2-chloropyridin-3-yl)ethyl (1-methyl-4-(6-methyl-5-((N-methylsulfamoyl)amino)pyridin-2-yl)-1H-1,2,3-triazol-5-yl)carbamate] as the molecule, how does the EC50 read?
**A.** 0.208 µM

**Q.** For `Cc1nc(-c2nnn(C)c2NC(=O)N[C@@H](c2ccccc2)C(F)F)ccc1NS(C)(=O)=O` [Compound 65, (S)-N-(6-(5-(3-(2,2-difluoro-1-phenylethyl)ureido)-1-methyl-1H-1,2,3-triazol-4-yl)-2-methylpyridin-3-yl)methanesulfonamide], which EC50 is on record?
**A.** 1.02 µM

**Q.** For `Cc1nc(-c2nnn(C)c2NC(=O)O[C@@H](c2ccccc2F)C(F)F)ccc1NS(C)(=O)=O` [Compound 54, (S)-2,2-difluoro-1-(2-fluorophenyl)ethyl (1-methyl-4-(6-methyl-5-(methylsulfonamido)pyridin-2-yl)-1H-1,2,3-triazol-5-yl)carbamate], which EC50 is on record?
**A.** 0.0906 µM

**Q.** For `Cn1nnc(-c2ccc(NS(C)(=O)=O)cn2)c1NC(=O)OCc1cccc(Cl)c1` [Compound 20, 3-chlorobenzyl (1-methyl-4-(5-(methylsulfonamido)pyridin-2-yl)-1H-1,2,3-triazol-5-yl)carbamate], which EC50 is on record?
**A.** 0.117 µM

**Q.** How did the EC50 turn out when `C[C@@H](OC(=O)Nc1c(-c2ccc(NS(C)(=O)=O)c(F)n2)nnn1C)c1ccccc1Cl` [Compound 5, (R)-1-(2-chlorophenyl)ethyl (4-(6-fluoro-5-(methylsulfonamido)pyridin-2-yl)-1-methyl-1H-1,2,3-triazol-5-yl)carbamate] was run?
**A.** 0.0343 µM

**Q.** Which EC50 does the source give for `C[C@@H](OC(=O)Nc1c(-c2ncc(NS(C)(=O)=O)cc2F)nnn1C)c1cccc(F)c1` [Compound 88, (R)-1-(3-fluorophenyl)ethyl(4-(3-fluoro-5-(methylsulfonamido)pyridin-2-yl)-1-methyl-1H-1,2,3-triazol-5-yl)carbamate] here?
**A.** 0.256 µM

**Q.** With `C[C@@H](OC(=O)Nc1c(-c2ccc(NS(=O)(=O)NC3CC3)cn2)nnn1C)c1cccnc1Cl` [Compound 159, (R)-1-(2-chloropyridin-3-yl)ethyl (4-(5-((N-cyclopropylsulfamoyl)amino)pyridin-2-yl)-1-methyl-1H-1,2,3-triazol-5-yl)carbamate] as the molecule, how does the EC50 read?
**A.** 0.24 µM

**Q.** For `Cc1nc(-c2nnn(C)c2NC(=O)OC(C)c2nccnc2Cl)ccc1NS(C)(=O)=O` (stereo not drawn) [Compound 76, 1-(3-chloropyrazin-2-yl)ethyl (1-methyl-4-(6-methyl-5-(methylsulfonamido)pyridin-2-yl)-1H-1,2,3-triazol-5-yl)carbamate], which EC50 is on record?
**A.** 0.929 µM

**Q.** Which EC50 does the source give for `C[C@@H](OC(=O)Nc1c(-c2ccc(NS(C)(=O)=O)cn2)nnn1C)c1cc(F)ccc1F` [Compound 17, (R)-1-(2,5-difluorophenyl)ethyl (1-methyl-4-(5-(methylsulfonamido)pyridin-2-yl)-1H-1,2,3-triazol-5-yl)carbamate] here?
**A.** 0.005 µM

**Q.** Which EC50 does the source give for `CC(OC(=O)Nc1c(-c2ccc(NS(C)(=O)=O)cn2)nnn1C)c1c(F)ccnc1Cl` (stereo not drawn) [Compound 121, 1-(2-chloro-4-fluoropyridin-3-yl)ethyl (1-methyl-4-(5-(methylsulfonamido)pyridin-2-yl)-1H-1,2,3-triazol-5-yl)carbamate] here?
**A.** 0.461 µM

**Q.** For `Cn1nnc(-c2ccc(NS(C)(=O)=O)cn2)c1NC(=O)O[C@H](CF)c1ccccc1` [Compound 18, (S)-2-fluoro-1-phenylethyl (1-methyl-4-(5-(methylsulfonamido)pyridin-2-yl)-1H-1,2,3-triazol-5-yl)carbamate], which EC50 is on record?
**A.** 0.0461 µM

**Q.** For `Cc1nc(-c2nnn(C)c2NC(=O)O[C@H](CCl)c2ccccc2)ccc1NS(C)(=O)=O` [Compound 49, (S)-2-chloro-1-phenylethyl (1-methyl-4-(6-methyl-5-(methylsulfonamido)pyridin-2-yl)-1H-1,2,3-triazol-5-yl)carbamate], which EC50 is on record?
**A.** 0.203 µM

**Q.** For `Cc1nc(-c2nnn(C)c2NC(=O)O[C@H](C)CC(C)C)ccc1NS(C)(=O)=O` [Compound 72, (R)-4-methylpentan-2-yl (1-methyl-4-(6-methyl-5-(methylsulfonamido)pyridin-2-yl)-1H-1,2,3-triazol-5-yl)carbamate], which EC50 is on record?
**A.** 0.115 µM

**Q.** For `C[C@@H](OC(=O)Nc1c(-c2ccc(NS(C)(=O)=O)cn2)nnn1C)c1ccccc1Cl` [Compound 10, (R)-1-(2-chlorophenyl)ethyl (1-methyl-4-(5-(methylsulfonamido)pyridin-2-yl)-1H-1,2,3-triazol-5-yl)carbamate], which EC50 is on record?
**A.** 0.0374 µM

**Q.** Which EC50 does the source give for `Cc1nc(-c2nnn(C)c2NC(=O)O[C@H](C)c2cccc(F)c2)ccc1NS(=O)(=O)C1CC1` [Compound 106, (R)-1-(3-fluoro-phenyl)ethyl(4-(5-(cyclopropane-sulfonamido)-6-methylpyridin-2-yl)-1-methyl-1H-1,2,3-triazol-5-yl)carbamate] here?
**A.** 0.313 µM

**Q.** For `Cc1nc(-c2nnn(C)c2NC(=O)N[C@H](C)c2ccccc2)ccc1NS(C)(=O)=O` [Compound 64], which EC50 is on record?
**A.** 2.74 µM

**Q.** For `Cc1nc(-c2nnn(C)c2NC(=O)OC(C)c2cccnc2C(F)(F)F)ccc1NS(C)(=O)=O` (stereo not drawn) [Compound 85, 1-(2-(trifluoromethyl)pyridin-3-yl)ethyl (1-methyl-4-(6-methyl-5-(methylsulfonamido)pyridin-2-yl)-1H-1,2,3-triazol-5-yl)carbamate], which EC50 is on record?
**A.** 2.47 µM

**Q.** How did the EC50 turn out when `Cc1nc(-c2nnn(C)c2NC(=O)O[C@@H](c2cc(F)ccc2F)C(F)F)ccc1NS(C)(=O)=O` [Compound 26, (S)-1-(2,5-difluorophenyl)-2,2-difluoroethyl (1-methyl-4-(6-methyl-5-(methylsulfonamido)pyridin-2-yl)-1H-1,2,3-triazol-5-yl)carbamate] was run?
**A.** 0.0341 µM

**Q.** With `COCC(OC(=O)Nc1c(-c2ccc(NS(C)(=O)=O)c(C)n2)nnn1C)c1ccccc1` (stereo not drawn) [Compound 34, 2-methoxy-1-phenylethyl (1-methyl-4-(6-methyl-5-(methylsulfonamido)pyridin-2-yl)-1H-1,2,3-triazol-5-yl)carbamate] as the molecule, how does the EC50 read?
**A.** 0.469 µM

**Q.** With `Cc1nc(-c2nnn(C)c2NC(=O)OC(C)c2ccnc(F)c2Cl)ccc1NS(C)(=O)=O` (stereo not drawn) [Compound 77, 1-(3-chloro-2-fluoropyridin-4-yl)ethyl (1-methyl-4-(6-methyl-5-(methylsulfonamido)pyridin-2-yl)-1H-1,2,3-triazol-5-yl)carbamate] as the molecule, how does the EC50 read?
**A.** 0.0792 µM

**Q.** With `Cc1nc(-c2nnn(C)c2NC(=O)O[C@H](C)c2cccc(F)c2F)ccc1NS(C)(=O)=O` [Compound 87, (R)-1-(2,3-difluorophenyl)ethyl(1-methyl-4-(6-methyl-5-(methylsulfonamido)pyridin-2-yl)-1H-1,2,3-triazol-5-yl)carbamate] as the molecule, how does the EC50 read?
**A.** 0.312 µM

**Q.** `Cc1nc(-c2nnn(C)c2NC(=O)OCCCC(C)C)ccc1NS(C)(=O)=O` [Compound 29, 4-methylpentyl (1-methyl-4-(6-methyl-5-(methylsulfonamido)pyridin-2-yl)-1H-1,2,3-triazol-5-yl)carbamate] was tested. Which EC50 did it give?
**A.** 0.325 µM

**Q.** How did the EC50 turn out when `Cc1ncc(Cl)cc1[C@@H](C)OC(=O)Nc1c(-c2ccc(NS(C)(=O)=O)cn2)nnn1C` [Compound 113, (R)-1-(5-chloro-2-methylpyridin-3-yl)ethyl (1-methyl-4-(5-(methylsulfonamido)pyridin-2-yl)-1H-1,2,3-triazol-5-yl)carbamate] was run?
**A.** 0.083 µM

**Q.** `Cc1nc(-c2nnn(C)c2NC(=O)O[C@H](C)c2cc(F)ccc2Cl)ccc1NS(C)(=O)=O` [Compound 60, (R)-1-(2-chloro-5-fluorophenyl)ethyl (1-methyl-4-(6-methyl-5-(methylsulfonamido)pyridin-2-yl)-1H-1,2,3-triazol-5-yl)carbamate] was tested. Which EC50 did it give?
**A.** 0.0313 µM

**Q.** With `Cc1nc(-c2nnn(C)c2NC(=O)O[C@H](CF)c2cc(F)ccc2F)ccc1NS(C)(=O)=O` [Compound 45, (S)-1-(2,5-difluorophenyl)-2-fluoroethyl (1-methyl-4-(6-methyl-5-(methylsulfonamido)pyridin-2-yl)-1H-1,2,3-triazol-5-yl)carbamate] as the molecule, how does the EC50 read?
**A.** 0.0558 µM
